Earlier results as cited in PMC10675597, “Design, Synthesis, and Antisickling Investigation of a Thiazolidine Prodrug of TD-7 That Prolongs the Duration of Action of Antisickling Aromatic Aldehyde” (Pharmaceutics, 2023).

Tests used:
[1] = parameters: method as in PMID 34657559, PMID 9490025, PMID 10376886, PMID 11154732; conditions: cited from earlier work
[2] = parameters: method as in PMID 15180869; conditions: cited from earlier work

SMILES	oral bioavailability (in words) [1]	oral bioavailability compared to vanillin (in words) [2]	Cmax ([2]; oral, Sprague-Dawley rats)	Cmax, fold greater than vanillin ([2]; oral, Sprague-Dawley rats)	relative bioavailability, fold higher than vanillin ([2]; oral, Sprague-Dawley rats)
O=Cc1ccc(CO)o1 [5-HMF, 5-hydroxymethylfurfural]	low oral bioavailability	–	–	–	–
CCOC(=O)[C@H]1CSC(c2ccc(O)c(OC)c2)N1 (some centres unmarked) [MX-1520]	–	much better oral bioavailability	9000 ng/mL	4 fold	30 fold
CC(C)n1nccc1-c1ncccc1COc1cccc(O)c1C=O [Voxelotor]	satisfactory oral bioavailability	–	–	–	–
COc1cc(C=O)ccc1O [vanillin]	low oral bioavailability	–	2000 ng/mL	–	–
